Results published in patent US20230024096A1, “BIFUNCTIONAL COMPOUNDS FOR THE TREATMENT OF CANCER” (Hoffmann-La Roche Inc., priority 2019, published 2023).

Biological target: T1, SMARCA2 (Homo sapiens, UniProt P51531)
T1 construct: endogenous in cells; host or cells: HT1080 (CRISPR HiBiT knock-in clone, generated in house)
Assay: SMARCA2 HiBiT degradation assay (cellular)
Type: cell-based
Conditions: table head names A549; for DC50: 6 h incubation, HiBiT-tagged SMARCA2, luminescence read-out, read-out: HiBit A549 SMARCA2 IP (nM) 6 h; for Emax: A549, 6 h incubation, Emax = amount of residual protein remaining in the cell following compound treatment

T1 sequence (P51531 whole entry): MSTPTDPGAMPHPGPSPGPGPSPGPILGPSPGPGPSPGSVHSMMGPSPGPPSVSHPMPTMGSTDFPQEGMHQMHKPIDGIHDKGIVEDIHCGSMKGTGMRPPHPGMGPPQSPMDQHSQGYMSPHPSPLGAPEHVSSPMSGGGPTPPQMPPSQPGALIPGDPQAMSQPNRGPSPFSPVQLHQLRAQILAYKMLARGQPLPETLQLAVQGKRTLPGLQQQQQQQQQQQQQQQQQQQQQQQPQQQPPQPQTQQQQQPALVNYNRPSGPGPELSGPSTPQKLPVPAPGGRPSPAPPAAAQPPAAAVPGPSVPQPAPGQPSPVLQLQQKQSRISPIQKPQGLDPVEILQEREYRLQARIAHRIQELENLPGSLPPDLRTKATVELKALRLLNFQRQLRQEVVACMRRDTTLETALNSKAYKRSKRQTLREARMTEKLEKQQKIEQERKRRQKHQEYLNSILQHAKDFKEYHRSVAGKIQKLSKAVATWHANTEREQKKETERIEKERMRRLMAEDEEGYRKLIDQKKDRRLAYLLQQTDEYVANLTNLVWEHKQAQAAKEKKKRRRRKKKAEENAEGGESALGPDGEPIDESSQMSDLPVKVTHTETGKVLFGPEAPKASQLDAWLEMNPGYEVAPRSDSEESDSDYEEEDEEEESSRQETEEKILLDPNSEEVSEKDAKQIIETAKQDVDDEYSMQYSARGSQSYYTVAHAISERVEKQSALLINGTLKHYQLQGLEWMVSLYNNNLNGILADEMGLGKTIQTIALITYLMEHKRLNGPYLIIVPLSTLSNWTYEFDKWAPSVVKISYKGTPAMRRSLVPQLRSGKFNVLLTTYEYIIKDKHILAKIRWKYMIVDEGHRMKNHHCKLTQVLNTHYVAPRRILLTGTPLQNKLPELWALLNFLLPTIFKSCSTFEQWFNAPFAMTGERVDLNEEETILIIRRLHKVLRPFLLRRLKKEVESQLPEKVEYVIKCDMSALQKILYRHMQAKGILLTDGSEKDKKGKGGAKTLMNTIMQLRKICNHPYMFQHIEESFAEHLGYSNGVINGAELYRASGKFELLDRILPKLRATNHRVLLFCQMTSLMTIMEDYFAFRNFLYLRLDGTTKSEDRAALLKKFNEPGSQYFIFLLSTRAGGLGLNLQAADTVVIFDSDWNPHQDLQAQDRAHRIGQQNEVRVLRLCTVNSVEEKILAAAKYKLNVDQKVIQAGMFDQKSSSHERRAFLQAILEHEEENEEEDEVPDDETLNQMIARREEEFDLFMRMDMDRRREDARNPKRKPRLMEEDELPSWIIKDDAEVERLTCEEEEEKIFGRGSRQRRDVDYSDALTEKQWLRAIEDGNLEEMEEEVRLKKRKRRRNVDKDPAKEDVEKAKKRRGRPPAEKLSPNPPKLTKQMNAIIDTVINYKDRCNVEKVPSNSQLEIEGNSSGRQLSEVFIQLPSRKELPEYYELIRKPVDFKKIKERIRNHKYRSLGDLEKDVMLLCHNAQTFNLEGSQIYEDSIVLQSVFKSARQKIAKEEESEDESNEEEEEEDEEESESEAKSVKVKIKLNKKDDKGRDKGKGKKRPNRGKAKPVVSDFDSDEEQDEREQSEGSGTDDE

Compound: Nc1nnc(-c2ccccc2O)cc1N1CC2CCC(C1)N2c1cccc(CC2CCN(C(=O)CCC3CCN(c4ccc5c(c4)C(=O)N(C4CCC(=O)NC4=O)C5=O)CC3)CC2)c1 (racemic) [Example 59, rac-5-[4-[3-[4-[[3-[3-[3-amino-6-(2-hydroxyphenyl)pyridazin-4-yl]-3,8-diazabicyclo[3.2.1]octan-8-yl]phenyl]methyl]-1-piperidyl]-3-oxo-propyl]-1-piperidyl]-2-(2,6-dioxo-3-piperidyl)isoindoline-1,3-dione]
- DC50: 129 nM
- Emax: 65%

Compound: Nc1nnc(-c2ccccc2O)cc1N1CC2CCC(C1)N2c1cccc(OCCN2CCN(C(=O)C3CN(c4ccc5c(c4)C(=O)N(C4CCC(=O)NC4=O)C5=O)C3)CC2)c1 (racemic) [Example 60, rac-5-[3-[4-[2-[3-[3-[3-amino-6-(2-hydroxyphenyl)pyridazin-4-yl]-3,8-diazabicyclo[3.2.1]octan-8-yl]phenoxy]ethyl]piperazine-1-carbonyl]azetidin-1-yl]-2-(2,6-dioxo-3-piperidyl)isoindoline-1,3-dione]
- DC50: 18 nM
- Emax: 32%

Compound: Nc1nnc(-c2ccccc2O)cc1N1CC2CCC(C1)N2c1cccc(OCCN2CCN(C(=O)C3CC4(C3)CN(c3ccc5c(c3)C(=O)N(C3CCC(=O)NC3=O)C5=O)C4)CC2)c1 (racemic) [Example 61, rac-5-[6-[4-[2-[3-[3-[3-amino-6-(2-hydroxyphenyl)pyridazin-4-yl]-3,8-diazabicyclo[3.2.1]octan-8-yl]phenoxy]ethyl]piperazine-1-carbonyl]-2-azaspiro[3.3]heptan-2-yl]-2-(2,6-dioxo-3-piperidyl)isoindoline-1,3-dione]
- DC50: 100 nM
- Emax: 53%

Compound: Nc1nnc(-c2ccccc2O)cc1O[C@@H]1CCCN(c2ccc(N3CCN(C(=O)CCCCCCCCn4cc(CNc5cccc6c5C(=O)N(C5CCC(=O)NC5=O)C6=O)nn4)CC3)cc2)C1 (mixture of isomers) [Example 62, 2-(2,6-dioxo-3-piperidyl)-4-[[1-[9-oxo-9-[4-[4-[rac-(3R)-3-[3-amino-6-(2-hydroxyphenyl)pyridazin-4-yl]oxy-1-piperidyl]phenyl]piperazin-1-yl]nonyl]triazol-4-yl]methylamino]isoindoline-1,3-dione]
- DC50: 124 nM
- Emax: 33%

Compound: Nc1nnc(-c2ccccc2O)cc1O[C@H]1CCCN(c2ccc(N3CCN(CCCCCCCCCn4cc(CNc5cccc6c5C(=O)N(C5CCC(=O)NC5=O)C6=O)nn4)CC3)cc2)C1 (mixture of isomers) [Example 66, 2-(2,6-dioxo-3-piperidyl)-4-[[1-[9-[4-[4-[rac-(3S)-3-[3-amino-6-(2-hydroxyphenyl)pyridazin-4-yl]oxy-1-piperidyl]phenyl]piperazin-1-yl]nonyl]triazol-4-yl]methylamino]isoindoline-1,3-dione]
- DC50: 144 nM
- Emax: 60%

Compound: Nc1nnc(-c2ccccc2O)cc1N1CC2CCC(C1)N2c1cccc(OCCN2CCN(C(=O)N3CC4(C3)CN(c3ccc5c(c3)C(=O)N(C3CCC(=O)NC3=O)C5=O)C4)CC2)c1 (racemic) [Example 69, rac-5-[2-[4-[2-[3-[3-[3-amino-6-(2-hydroxyphenyl)pyridazin-4-yl]-3,8-diazabicyclo[3.2.1]octan-8-yl]phenoxy]ethyl]piperazine-1-carbonyl]-2,6-diazaspiro[3.3]heptan-6-yl]-2-(2,6-dioxo-3-piperidyl)isoindoline-1,3-dione]
- DC50: 16 nM
- Emax: 48%

Compound: Nc1nnc(-c2ccccc2O)cc1N1CC2CCC(C1)N2c1cccc(CC2CCN(C(=O)C3CCN(c4ccc5c(c4)C(=O)N(C4CCC(=O)NC4=O)C5=O)CC3)CC2)c1 (racemic) [Example 70, rac-5-[4-[4-[[3-[3-[3-amino-6-(2-hydroxyphenyl)pyridazin-4-yl]-3,8-diazabicyclo[3.2.1]octan-8-yl]phenyl]methyl]piperidine-1-carbonyl]-1-piperidyl]-2-(2,6-dioxo-3-piperidyl)isoindoline-1,3-dione]
- DC50: 40 nM
- Emax: 42%

Compound: Nc1nnc(-c2ccccc2O)cc1N1CC2CCC(C1)N2c1cccc(OCCN2CCN(C(=O)CN3CCC(c4ccc(NC5CCC(=O)NC5=O)cc4)CC3)CC2)c1 (racemic) [Example 79, rac-3-[4-[1-[2-[4-[2-[3-[3-[3-amino-6-(2-hydroxyphenyl)pyridazin-4-yl]-3,8-diazabicyclo[3.2.1]octan-8-yl]phenoxy]ethyl]piperazin-1-yl]-2-oxo-ethyl]-4-piperidyl]anilino]piperidine-2,6-dione]
- DC50: 19 nM
- Emax: 46%

Compound: Nc1nnc(-c2ccccc2O)cc1N1CC2CCC(C1)N2c1cccc(OCCN2CCN(C(=O)N3CCC(c4ccc(NC5CCC(=O)NC5=O)cc4)CC3)CC2)c1 (racemic) [Example 80, rac-3-[4-[1-[4-[2-[3-[3-[3-amino-6-(2-hydroxyphenyl)pyridazin-4-yl]-3,8-diazabicyclo[3.2.1]octan-8-yl]phenoxy]ethyl]piperazine-1-carbonyl]-4-piperidyl]anilino]piperidine-2,6-dione]
- DC50: 11 nM
- Emax: 51%

Compound: Nc1nnc(-c2ccccc2O)cc1N1CC2CCC(C1)N2c1cccc(OCCN2CCN(C(=O)N3CCN(c4ccc(NC5CCC(=O)NC5=O)cc4)CC3)CC2)c1 (racemic) [Example 81, rac-3-[4-[4-[4-[2-[3-[3-[3-amino-6-(2-hydroxyphenyl)pyridazin-4-yl]-3,8-diazabicyclo[3.2.1]octan-8-yl]phenoxy]ethyl]piperazine-1-carbonyl]piperazin-1-yl]anilino]piperidine-2,6-dione]
- DC50: 16 nM
- Emax: 56%

Compound: Nc1nnc(-c2ccccc2O)cc1N1CC2CCC(C1)N2c1cccc(CN2CCC(C(=O)N3CCC(c4ccc(OC5CCC(=O)NC5=O)cc4)CC3)CC2)c1 (racemic) [Example 92, rac-3-[4-[1-[1-[[3-[3-[3-amino-6-(2-hydroxyphenyl)pyridazin-4-yl]-3,8-diazabicyclo[3.2.1]octan-8-yl]phenyl]methyl]piperidine-4-carbonyl]-4-piperidyl]phenoxy]piperidine-2,6-dione]
- DC50: 17 nM
- Emax: 41%

Compound: Nc1nnc(-c2ccccc2O)cc1N1CC2CCC(C1)N2c1cccc(CN2CCC(C(=O)N3CCC(c4ccc(NC5CCC(=O)NC5=O)cc4)CC3)CC2)c1 (racemic) [Example 93, rac-3-[4-[1-[1-[[3-[3-[3-amino-6-(2-hydroxyphenyl)pyridazin-4-yl]-3,8-diazabicyclo[3.2.1]octan-8-yl]phenyl]methyl]piperidine-4-carbonyl]-4-piperidyl]anilino]piperidine-2,6-dione]
- DC50: 9 nM
- Emax: 52%

Compound: Nc1nnc(-c2ccccc2O)cc1N1CC2CCC(C1)N2c1cccc(CN2CCC(C(=O)N3CCN(c4ccc(OC5CCC(=O)NC5=O)cc4)CC3)CC2)c1 (racemic) [Example 94, rac-3-[4-[4-[1-[[3-[3-[3-amino-6-(2-hydroxyphenyl)pyridazin-4-yl]-3,8-diazabicyclo[3.2.1]octan-8-yl]phenyl]methyl]piperidine-4-carbonyl]piperazin-1-yl]phenoxy]piperidine-2,6-dione]
- DC50: 18 nM
- Emax: 48%

Compound: Nc1nnc(-c2ccccc2O)cc1N1CC2CCC(C1)N2c1cccc(CN2CCC(C(=O)N3CCN(c4ccc5c(c4)C(=O)N(C4CCC(=O)NC4=O)C5=O)CC3)CC2)c1 (racemic) [Example 95, rac-5-[4-[1-[[3-[3-[3-amino-6-(2-hydroxyphenyl)pyridazin-4-yl]-3,8-diazabicyclo[3.2.1]octan-8-yl]phenyl]methyl]piperidine-4-carbonyl]piperazin-1-yl]-2-(2,6-dioxo-3-piperidyl)isoindoline-1,3-dione]
- DC50: 13 nM
- Emax: 25%

Compound: Nc1nnc(-c2ccccc2O)cc1N1CC2CCC(C1)N2c1cccc(CN2CCC(C(=O)N3CCC(Oc4ccc5c(c4)C(=O)N(C4CCC(=O)NC4=O)C5=O)CC3)CC2)c1 (racemic) [Example 96, rac-5-[[1-[1-[[3-[3-[3-amino-6-(2-hydroxyphenyl)pyridazin-4-yl]-3,8-diazabicyclo[3.2.1]octan-8-yl]phenyl]methyl]piperidine-4-carbonyl]-4-piperidyl]oxy]-2-(2,6-dioxo-3-piperidyl)isoindoline-1,3-dione]
- DC50: 7 nM
- Emax: 27%

Compound: Nc1nnc(-c2ccccc2O)cc1OCC(CNC(=O)C1CCN(c2ccc3c(c2)C(=O)N(C2CCC(=O)NC2=O)C3=O)CC1)c1ccccc1 (racemic) [Example 97, N-[3-[3-amino-6-(2-hydroxyphenyl)pyridazin-4-yl]oxy-2-phenyl-propyl]-1-[2-(2,6-dioxo-3-piperidyl)-1,3-dioxo-isoindolin-5-yl]piperidine-4-carboxamide (racemic mixture of diastereomers)]
- DC50: 659 nM
- Emax: 30%

Compound: Nc1nnc(-c2ccccc2O)cc1OCC(CNC(=O)CN1CCC(c2ccc(OC3CCC(=O)NC3=O)cc2)CC1)c1ccccc1 (racemic) [Example 98, N-[3-[3-amino-6-(2-hydroxyphenyl)pyridazin-4-yl]oxy-2-phenyl-propyl]-2-[4-[4-[(2,6-dioxo-3-piperidyl)oxy]phenyl]-1-piperidyl]acetamide;2,2,2-trifluoroacetic acid (racemic mixture of diastereomers)]
- DC50: 182 nM
- Emax: 63%

Compound: Nc1nnc(-c2ccccc2O)cc1N1CC2CCC(C1)N2c1cccc(OCCN2CCN(C(=O)COc3ccc4c(c3)C(=O)N(C3CCC(=O)NC3=O)C4=O)CC2)c1 (racemic) [Example 99, rac-5-[2-[4-[2-[3-[3-[3-amino-6-(2-hydroxyphenyl)pyridazin-4-yl]-3,8-diazabicyclo[3.2.1]octan-8-yl]phenoxy]ethyl]piperazin-1-yl]-2-oxo-ethoxy]-2-(2,6-dioxo-3-piperidyl)isoindoline-1,3-dione]
- DC50: 31 nM
- Emax: 51%
